Test results published in patent publication US20140342379A1, “Means and Methods for Assessing Gonadal Toxicity” (BASF SE, priority 2011, published 2014).
Marks after values point to notes of the source that are not given here.

Test system: male rats
Assay: 28-day repeated dose study, plasma metabolite profiling (GC-MS, LC-MS), male rats
Format: in vivo, rat
Source text: Drinking water was also offered ad libitum.

CC(=O)CCC(C)=O [2,5-hexanedione]
18-Hydroxy-11-deoxycorticosterone, plasma, treatment ratio versus control (day 7): 0.89
Alanine, plasma, treatment ratio versus control (day 7): 0.71*
Arachidonic acid (C20:cis[5,8,11,14]4), plasma, treatment ratio versus control (day 7): 0.9
Coenzyme Q9, plasma, treatment ratio versus control (day 7): 0.89
Creatinine, plasma, treatment ratio versus control (day 7): 1.21*
DAG (C18:1, C18:2), plasma, treatment ratio versus control (day 7): 0.51*
Fructose-6-phosphate, plasma, treatment ratio versus control (day 7): 0.75*
Galactose, lipid fraction, plasma, treatment ratio versus control (day 7): 0.96
Glucosamine, plasma, treatment ratio versus control (day 7): 0.79*
Glucose, plasma, treatment ratio versus control (day 7): 0.85*
Glycerol, polar fraction, plasma, treatment ratio versus control (day 7): 0.96
Heneicosanoic acid (C21:0), plasma, treatment ratio versus control (day 7): 0.97
Lactate, plasma, treatment ratio versus control (day 7): 0.82*
Linolenic acid (C18:cis[9,12,15]3), plasma, treatment ratio versus control (day 7): 0.89*
Lysine, plasma, treatment ratio versus control (day 7): 0.96*
Malate, plasma, treatment ratio versus control (day 7): 0.79*
Oleic acid (C18:cis[9]1), plasma, treatment ratio versus control (day 7): 0.81*
Palmitoleic acid (C16:cis[9]1), plasma, treatment ratio versus control (day 7): 0.82*
Phenylalanine, plasma, treatment ratio versus control (day 7): 0.85*
Phosphate (inorganic and organic phosphates), plasma, treatment ratio versus control (day 7): 0.89*
Pyruvate, plasma, treatment ratio versus control (day 7): 1.04
Spermidine, plasma, treatment ratio versus control (day 7): 0.95
TAG (C16:0,C16:1), plasma, treatment ratio versus control (day 7): 0.49*
Uracil, plasma, treatment ratio versus control (day 7): 0.85*
myo-Inositol, plasma, treatment ratio versus control (day 7): 0.71*
trans-4-Hydroxyproline, plasma, treatment ratio versus control (day 7): 0.84*
18-Hydroxy-11-deoxycorticosterone, plasma, treatment ratio versus control (day 14): 0.33*
Alanine, plasma, treatment ratio versus control (day 14): 0.76*
Arachidonic acid (C20:cis[5,8,11,14]4), plasma, treatment ratio versus control (day 14): 0.93
Coenzyme Q9, plasma, treatment ratio versus control (day 14): 1.12*
Creatinine, plasma, treatment ratio versus control (day 14): 1.64*
DAG (C18:1, C18:2), plasma, treatment ratio versus control (day 14): 0.6*
Fructose-6-phosphate, plasma, treatment ratio versus control (day 14): 0.7*
Galactose, lipid fraction, plasma, treatment ratio versus control (day 14): 0.97
Glucosamine, plasma, treatment ratio versus control (day 14): 0.9
Glucose, plasma, treatment ratio versus control (day 14): 0.89*
Glycerol, polar fraction, plasma, treatment ratio versus control (day 14): 0.98
Heneicosanoic acid (C21:0), plasma, treatment ratio versus control (day 14): 0.84
Lactate, plasma, treatment ratio versus control (day 14): 0.69*
Linolenic acid (C18:cis[9,12,15]3), plasma, treatment ratio versus control (day 14): 0.57*
Lysine, plasma, treatment ratio versus control (day 14): 0.93*
Malate, plasma, treatment ratio versus control (day 14): 0.82*
Oleic acid (C18:cis[9]1), plasma, treatment ratio versus control (day 14): 0.81*
Palmitoleic acid (C16:cis[9]1), plasma, treatment ratio versus control (day 14): 1.03
Phenylalanine, plasma, treatment ratio versus control (day 14): 0.84*
Phosphate (inorganic and organic phosphates), plasma, treatment ratio versus control (day 14): 1
Pyruvate, plasma, treatment ratio versus control (day 14): 0.95
Spermidine, plasma, treatment ratio versus control (day 14): 0.89*
TAG (C16:0,C16:1), plasma, treatment ratio versus control (day 14): 0.67*
Uracil, plasma, treatment ratio versus control (day 14): 0.83*
myo-Inositol, plasma, treatment ratio versus control (day 14): 0.79*
trans-4-Hydroxyproline, plasma, treatment ratio versus control (day 14): 0.91*
18-Hydroxy-11-deoxycorticosterone, plasma, treatment ratio versus control (day 28): 0.24*
Alanine, plasma, treatment ratio versus control (day 28): 0.77*
Arachidonic acid (C20:cis[5,8,11,14]4), plasma, treatment ratio versus control (day 28): 1.03
Coenzyme Q9, plasma, treatment ratio versus control (day 28): 1.02
Creatinine, plasma, treatment ratio versus control (day 28): 1.35*
DAG (C18:1, C18:2), plasma, treatment ratio versus control (day 28): 0.79*
Fructose-6-phosphate, plasma, treatment ratio versus control (day 28): 0.69*
Galactose, lipid fraction, plasma, treatment ratio versus control (day 28): 0.99
Glucosamine, plasma, treatment ratio versus control (day 28): 0.91*
Glucose, plasma, treatment ratio versus control (day 28): 0.85*
Glycerol, polar fraction, plasma, treatment ratio versus control (day 28): 0.8*
Heneicosanoic acid (C21:0), plasma, treatment ratio versus control (day 28): 0.99
Lactate, plasma, treatment ratio versus control (day 28): 0.66*
Linolenic acid (C18:cis[9,12,15]3), plasma, treatment ratio versus control (day 28): 0.92*
Lysine, plasma, treatment ratio versus control (day 28): 0.96
Malate, plasma, treatment ratio versus control (day 28): 0.74*
Oleic acid (C18:cis[9]1), plasma, treatment ratio versus control (day 28): 0.92*
Palmitoleic acid (C16:cis[9]1), plasma, treatment ratio versus control (day 28): 1.11
Phenylalanine, plasma, treatment ratio versus control (day 28): 0.89*
Phosphate (inorganic and organic phosphates), plasma, treatment ratio versus control (day 28): 1.01
Pyruvate, plasma, treatment ratio versus control (day 28): 0.72*
Spermidine, plasma, treatment ratio versus control (day 28): 0.94
TAG (C16:0,C16:1), plasma, treatment ratio versus control (day 28): 0.95
Uracil, plasma, treatment ratio versus control (day 28): 0.87*
myo-Inositol, plasma, treatment ratio versus control (day 28): 0.89
trans-4-Hydroxyproline, plasma, treatment ratio versus control (day 28): 0.87*

CCCCOCCO [2-Butoxyethanol]
18-Hydroxy-11-deoxycorticosterone, plasma, treatment ratio versus control (day 7): 0.18*
Alanine, plasma, treatment ratio versus control (day 7): 0.83*
Arachidonic acid (C20:cis[5,8,11,14]4), plasma, treatment ratio versus control (day 7): 0.86*
Coenzyme Q9, plasma, treatment ratio versus control (day 7): 0.83*
Creatinine, plasma, treatment ratio versus control (day 7): 1.03
DAG (C18:1, C18:2), plasma, treatment ratio versus control (day 7): 0.99
Fructose-6-phosphate, plasma, treatment ratio versus control (day 7): 0.84
Galactose, lipid fraction, plasma, treatment ratio versus control (day 7): 0.8*
Glucosamine, plasma, treatment ratio versus control (day 7): 1
Glucose, plasma, treatment ratio versus control (day 7): 0.81*
Glycerol, polar fraction, plasma, treatment ratio versus control (day 7): 0.86*
Heneicosanoic acid (C21:0), plasma, treatment ratio versus control (day 7): 0.88
Lactate, plasma, treatment ratio versus control (day 7): 0.93*
Linolenic acid (C18:cis[9,12,15]3), plasma, treatment ratio versus control (day 7): 1.01
Lysine, plasma, treatment ratio versus control (day 7): 0.81*
Malate, plasma, treatment ratio versus control (day 7): 0.81*
Oleic acid (C18:cis[9]1), plasma, treatment ratio versus control (day 7): 0.98
Palmitoleic acid (C16:cis[9]1), plasma, treatment ratio versus control (day 7): 0.94
Phenylalanine, plasma, treatment ratio versus control (day 7): 0.87*
Phosphate (inorganic and organic phosphates), plasma, treatment ratio versus control (day 7): 1.05
Pyruvate, plasma, treatment ratio versus control (day 7): 1.1
Spermidine, plasma, treatment ratio versus control (day 7): 0.67*
TAG (C16:0,C16:1), plasma, treatment ratio versus control (day 7): 1.16
Uracil, plasma, treatment ratio versus control (day 7): 0.77*
myo-Inositol, plasma, treatment ratio versus control (day 7): 0.88
trans-4-Hydroxyproline, plasma, treatment ratio versus control (day 7): 1.03
18-Hydroxy-11-deoxycorticosterone, plasma, treatment ratio versus control (day 14): 0.44*
Alanine, plasma, treatment ratio versus control (day 14): 0.93
Arachidonic acid (C20:cis[5,8,11,14]4), plasma, treatment ratio versus control (day 14): 0.84
Coenzyme Q9, plasma, treatment ratio versus control (day 14): 0.5*
Creatinine, plasma, treatment ratio versus control (day 14): 1.34*
DAG (C18:1, C18:2), plasma, treatment ratio versus control (day 14): 0.69*
Fructose-6-phosphate, plasma, treatment ratio versus control (day 14): 1.11
Galactose, lipid fraction, plasma, treatment ratio versus control (day 14): 0.86
Glucosamine, plasma, treatment ratio versus control (day 14): 0.88
Glucose, plasma, treatment ratio versus control (day 14): 0.73*
Glycerol, polar fraction, plasma, treatment ratio versus control (day 14): 0.95
Heneicosanoic acid (C21:0), plasma, treatment ratio versus control (day 14): 0.86*
Lactate, plasma, treatment ratio versus control (day 14): 0.86
Linolenic acid (C18:cis[9,12,15]3), plasma, treatment ratio versus control (day 14): 0.9*
Lysine, plasma, treatment ratio versus control (day 14): 1
Malate, plasma, treatment ratio versus control (day 14): 0.79*
Oleic acid (C18:cis[9]1), plasma, treatment ratio versus control (day 14): 0.8*
Palmitoleic acid (C16:cis[9]1), plasma, treatment ratio versus control (day 14): 0.77
Phenylalanine, plasma, treatment ratio versus control (day 14): 0.94*
Phosphate (inorganic and organic phosphates), plasma, treatment ratio versus control (day 14): 1.03
Pyruvate, plasma, treatment ratio versus control (day 14): 0.78
Spermidine, plasma, treatment ratio versus control (day 14): 0.68*
TAG (C16:0,C16:1), plasma, treatment ratio versus control (day 14): 0.66*
Uracil, plasma, treatment ratio versus control (day 14): 0.9
myo-Inositol, plasma, treatment ratio versus control (day 14): 0.82*
trans-4-Hydroxyproline, plasma, treatment ratio versus control (day 14): 1.21*
18-Hydroxy-11-deoxycorticosterone, plasma, treatment ratio versus control (day 28): 0.68*
Alanine, plasma, treatment ratio versus control (day 28): 0.91*
Arachidonic acid (C20:cis[5,8,11,14]4), plasma, treatment ratio versus control (day 28): 0.84
Coenzyme Q9, plasma, treatment ratio versus control (day 28): 0.83
Creatinine, plasma, treatment ratio versus control (day 28): 1.19*
DAG (C18:1, C18:2), plasma, treatment ratio versus control (day 28): 0.78
Fructose-6-phosphate, plasma, treatment ratio versus control (day 28): 0.61*
Galactose, lipid fraction, plasma, treatment ratio versus control (day 28): 0.71*
Glucosamine, plasma, treatment ratio versus control (day 28): 1.3*
Glucose, plasma, treatment ratio versus control (day 28): 0.93*
Glycerol, polar fraction, plasma, treatment ratio versus control (day 28): 0.87*
Heneicosanoic acid (C21:0), plasma, treatment ratio versus control (day 28): 0.96
Lactate, plasma, treatment ratio versus control (day 28): 0.72*
Linolenic acid (C18:cis[9,12,15]3), plasma, treatment ratio versus control (day 28): 0.99
Lysine, plasma, treatment ratio versus control (day 28): 0.86*
Malate, plasma, treatment ratio versus control (day 28): 0.7*
Oleic acid (C18:cis[9]1), plasma, treatment ratio versus control (day 28): 0.91
Palmitoleic acid (C16:cis[9]1), plasma, treatment ratio versus control (day 28): 0.77
Phenylalanine, plasma, treatment ratio versus control (day 28): 0.95*
Phosphate (inorganic and organic phosphates), plasma, treatment ratio versus control (day 28): 1.02*
Pyruvate, plasma, treatment ratio versus control (day 28): 0.72*
Spermidine, plasma, treatment ratio versus control (day 28): 0.77*
TAG (C16:0,C16:1), plasma, treatment ratio versus control (day 28): 1.06
Uracil, plasma, treatment ratio versus control (day 28): 0.71*
myo-Inositol, plasma, treatment ratio versus control (day 28): 0.93*
trans-4-Hydroxyproline, plasma, treatment ratio versus control (day 28): 1.15
